# Data as given in article PMC7015960, “Effect of rifampin and itraconazole on the pharmacokinetics of zanubrutinib (a Bruton's tyrosine kinase inhibitor) in Asian and non-Asian healthy subjects” (Cancer Chemotherapy and Pharmacology, 2019).
# Values joined by “and” are separate entries in the source; they are usually repeats but may differ in a detail not shown here. Identical values can stand only once. Like-named read-outs stand apart in the source and are kept apart here.
# What was measured:
# [1] = Safety and tolerability (TEAEs, laboratory, vital signs, QTcF) in healthy subjects, Parts A and B; type: in vivo, human
# Source text: Treatment-emergent adverse events (TEAEs) are summarized by part, treatment, National Cancer Institute Common Terminology Criteria for Adverse Events (v4.03) grade, and relationship to study drugs (zanubrutinib, rifampin, and itraconazole). The frequency of TEAEs is summarized by part, treatment, and Medical Dictionary for Regulatory Activities (MedDRA) system organ class (SOC) and preferred term. The summary and frequency TEAE tables are presented for all causalities and for those TEAEs considered related to the study drugs.
# [2] = Part A: single-dose PK of 320 mg zanubrutinib alone and with steady-state rifampin (CYP3A induction) in healthy subjects; type: in vivo, human; settings: for CL/F / AUC(0-inf) / Cmax / half-life / Vd/F: geometric mean (CV%); for AUC(0-inf) / Cmax / half-life / Vd/F / Tmax: both sexes, human, plasma; for Vd/F: read-out: Vz/F; for Tmax: median (min–max)
# Protocol: (§1) This was an open-label, parallel-group, fixed-sequence study in healthy male and female subjects conducted in two parts, Part A and Part B. Part A investigated the effect of CYP3A induction by steady-state rifampin on the single-dose PK of 320 mg zanubrutinib, and Part B investigated the effect of CYP3A inhibition by steady-state itraconazole on the single-dose PK of 20 mg zanubrutinib.
# (§2) In Part A, participants received a single oral dose of zanubrutinib (320 mg) in the fasted state on Day 1 and Day 10. Oral rifampin (600 mg/day, Rifampin, VersaPharm Inc., Marietta, GA, USA) was administered once daily in the fasted state on Days 3 through 11. In Part B, participants received a single oral dose of zanubrutinib (20 mg) in the fasted state on Day 1 and Day 6. Oral itraconazole (200 mg/day, Sporanox® capsules, Janssen Pharmaceuticals, Titusville, NJ, USA) was administered once-daily approximately 30 min after completing a meal on Days 3, 4, 5, and 7, and in the fasted state on Day 6.
# (§3) Serial blood samples were collected with zanubrutinib alone and when combined with rifampin or itraconazole for the measurement of zanubrutinib plasma concentrations. Plasma samples were collected at predose, 0.5, 1, 1.5, 2, 3, 4, 6, 8, 12, 24, 36, and 48 h postdose on Day 1 and Day 10 in Part A and on Day 1 and Day 6 in Part B.
# (§4) Plasma concentrations of zanubrutinib were determined using validated high-performance liquid chromatography coupled with tandem mass spectrometry (HPLC–MS/MS) (Xenobiotic Laboratories, NJ, USA). Protein precipitation was utilized to extract the analyte and internal standard from human plasma containing dipotassium ethylenediaminetetraacetic acid (K2EDTA) as anticoagulant. The analytical method utilized a reversed-phase HPLC column (Supelco Ascentis Express C18 20 × 2.1 mm, 2.7 µm) with a gradient flow of 0.1% formic acid in water (Mobile Phase A) and methanol:acetonitrile (1:1) (Mobile Phase B) at a rate of 0.5 mL/min. The analyte and internal standard were detected using an AB Sciex API-4000 LC–MS/MS system equipped with a positive ESI ion detection.
# (§5) The calibration range of zanubrutinib in the assay was 1.00 to 1000 ng/mL using a 50 μL aliquot of plasma, with the lower limit of quantification of 1.00 ng/mL.
# (§6) Noncompartmental PK analysis was conducted using the Phoenix® WinNolin® software (Version 6.4). PK parameters were derived for zanubrutinib alone and in combination with rifampin or itraconazole, including area under the plasma concentration–time curve (AUC), maximum observed plasma concentration (Cmax), time of the maximum observed plasma concentration (tmax), apparent terminal elimination half-life (t1/2), apparent total oral clearance (CL/F), and apparent volume of distribution during the terminal elimination phase (Vz/F). Log-transformed area under the curve from time 0 extrapolated to time t (AUC0–t), area under the curve from time 0 extrapolated to infinite time (AUC0–∞), and Cmax of zanubrutinib were analyzed using a mixed model for each part of the study, including treatments as a fixed effect and subject as a random effect. Estimates of geometric mean ratios (GMRs) and the corresponding 90% confidence intervals (CIs) were derived for the comparisons of AUC0–∞, and Cmax as follows:
# Part A: zanubrutinib coadministration with rifampin (test) versus zanubrutinib alone (reference),
# [3] = Part B: single-dose PK of 20 mg zanubrutinib alone and with steady-state itraconazole (CYP3A inhibition) in healthy subjects; type: in vivo, human; settings: for CL/F / AUC(0-inf) / Cmax / half-life / Vd/F: geometric mean (CV%); for AUC(0-inf) / Cmax / half-life / Vd/F / Tmax: both sexes, human, plasma; for Vd/F: read-out: Vz/F; for Tmax: median (min–max)
# Protocol: as §1, §2, §3, §4, §5, §6
# Part B: zanubrutinib coadministration with itraconazole (test) versus zanubrutinib alone (reference).
# [4] = cited from earlier work
# [5] = tested on: cytochrome P450 3A (CYP3A); parameters: method as in unpublished data; settings: human liver microsomes; ref unpublished data; cited from earlier work
# [6] = cited from earlier work; remark: listed apart in the source
# [7] = 320 mg zanubrutinib with 600 mg rifampin vs alone
# [8] = oral, 320 mg zanubrutinib + 600 mg rifampin QD, Day 10
# [9] = oral, 320 mg, Asian subjects, Part A Day 1, 320 mg zanubrutinib alone
# [10] = oral, 320 mg, Non-Asian subjects, Part A Day 1, 320 mg zanubrutinib alone
# [11] = oral, Asian subjects, Part A Day 10, zanubrutinib + rifampicin
# [12] = oral, Non-Asian subjects, Part A Day 10, zanubrutinib + rifampicin
# [13] = oral, 320 mg zanubrutinib + 600 mg rifampin QD
# [14] = oral, 320 mg zanubrutinib alone
# [15] = zanubrutinib in combination with rifampin versus zanubrutinib alone
# [16] = 20 mg zanubrutinib with 200 mg itraconazole vs alone
# [17] = oral, 20 mg zanubrutinib + 200 mg itraconazole QD, Day 6
# [18] = oral, 20 mg, Asian subjects, Part B Day 1, 20 mg zanubrutinib alone
# [19] = oral, 20 mg, Non-Asian subjects, Part B Day 1, 20 mg zanubrutinib alone
# [20] = oral, Asian subjects, Part B Day 6, zanubrutinib + itraconazole
# [21] = oral, Non-Asian subjects, Part B Day 6, zanubrutinib + itraconazole
# [22] = oral, 20 mg zanubrutinib + 200 mg itraconazole QD
# [23] = zanubrutinib in combination with itraconazole versus zanubrutinib alone
# [24] = patients with B-cell malignancies
smiles,measurement,setting,value
"C=CC(=O)N1CCC([C@@H]2CCNc3c(C(N)=O)c(-c4ccc(Oc5ccccc5)cc4)nn32)CC1 [zanubrutinib, Zanubrutinib]",overall incidence of TEAEs,[1]; both Part A and Part B,less than 30%
same,severity of TEAEs / SAEs / discontinuation,"[1]; both parts, NCI CTCAE v4.03","no subject reported a TEAE higher than Grade 2 or an SAE, and no subject discontinued due to a TEAE"
same,QTcF,[1]; during the study,No subject had a QTcF value > 450 ms or an increase from baseline in QTcF of > 60 ms
same,tolerability,"[1]; single doses of 320 mg and 20 mg zanubrutinib alone or with 600 mg rifampin / 200 mg itraconazole, healthy subjects",well tolerated
same,CL/F,[2]; 320 mg zanubrutinib + 600 mg rifampin QD,1249 L/h and 1249 (43) L/h
same,"PK parameters, Asian versus non-Asian subjects",[2]; 320 mg zanubrutinib alone on Day 1 and with 600 mg rifampin on Day 10,comparable between Asian and non-Asian subjects
same,CL/F,[2]; 320 mg zanubrutinib alone,93 L/h and 93 (36) L/h
same,decrease of AUC0–∞ on coadministration with rifampin,[2]; [7],13.5 fold
same,decrease of Cmax on coadministration with rifampin,[2]; [7],12.6 fold
same,AUC(0-inf),[2]; [8],261 ng·h/mL
same,Cmax,[2]; [8],42 ng/mL
same,Cmax,"[2]; oral, 320 mg, 320 mg zanubrutinib alone, Day 1",532 ng/mL
same,AUC(0-inf),[2]; [9],3460 ng·h/mL
same,Cmax,[2]; [9],543 ng/mL
same,AUC(0-inf),[2]; [10],3410 ng·h/mL
same,Cmax,[2]; [10],525 ng/mL
same,AUC(0-inf),[2]; [11],213 ng·h/mL
same,Cmax,[2]; [11],41 ng/mL
same,AUC(0-inf),[2]; [12],293 ng·h/mL
same,Cmax,[2]; [12],43 ng/mL
same,half-life,[2]; [13],288 min
same,Vd/F,[2]; [13],8660 L
same,Tmax,[2]; [13],2 h
same,half-life,[2]; [14],408 min
same,Vd/F,[2]; [14],914 L
same,Tmax,[2]; [14],2 h
same,AUC(0-inf),"[2]; po, 320 mg, 320 mg zanubrutinib alone, single oral dose, fasted, Day 1",3520 ng·h/mL
same,AUC0–∞ geometric ratio of adjusted means (90% CI),[2]; [15],"7.4% and 7.4 (6.0, 9.1) %"
same,Cmax geometric ratio of adjusted means (90% CI),[2]; [15],"7.9% and 7.9 (6.6, 9.5) %"
same,CL/F,[3]; 20 mg zanubrutinib + 200 mg itraconazole QD,29 (31) L/h
same,"PK, Asian versus non-Asian subjects",[3]; 20 mg zanubrutinib alone on Day 1 and with 200 mg itraconazole on Day 6,comparable between Asian and non-Asian subjects
same,CL/F,[3]; 20 mg zanubrutinib alone,109 (29) L/h
same,increase of AUC0–∞ on coadministration with itraconazole,[3]; [16],3.8 fold and < 4 fold
same,increase of Cmax on coadministration with itraconazole,[3]; [16],2.6 fold
same,AUC(0-inf),[3]; [17],693 ng·h/mL
same,Cmax,[3]; [17],122 ng/mL
same,Cmax,"[3]; oral, 20 mg, 20 mg zanubrutinib alone, Day 1",48 ng/mL
same,AUC(0-inf),[3]; [18],174 ng·h/mL
same,Cmax,[3]; [18],50 ng/mL
same,AUC(0-inf),[3]; [19],192 ng·h/mL
same,Cmax,[3]; [19],46 ng/mL
same,AUC(0-inf),[3]; [20],694 ng·h/mL
same,Cmax,[3]; [20],124 ng/mL
same,AUC(0-inf),[3]; [21],693 ng·h/mL
same,Cmax,[3]; [21],120 ng/mL
same,half-life,[3]; [22],258 min
same,Vd/F,[3]; [22],178 L
same,Tmax,[3]; [22],2 h
same,Vd/F,"[3]; oral, 20 mg zanubrutinib alone",341 L
same,half-life,"[3]; oral, 20 mg zanubrutinib alone, terminal phase may not be adequately characterized",132 min
same,Tmax,"[3]; oral, 20 mg zanubrutinib alone",1.5 h
same,AUC(0-inf),"[3]; po, 20 mg, 20 mg zanubrutinib alone, single oral dose, fasted, Day 1",184 ng·h/mL
same,AUC0–∞ geometric ratio of adjusted means (90% CI),[3]; [23],"378% and 378 (344, 415) %"
same,Cmax geometric ratio of adjusted means (90% CI),[3]; [23],"257% and 257 (226, 291) %"
same,mean half-life,"[4]; patients with B-cell malignancies, PK generally assessed only for 8 h post-dose",2 to 4 h
same,tolerability,"[4]; patients with B-cell malignancies, total daily doses 40 to 320 mg",generally well tolerated
same,accumulation after repeated dosing,[4]; [24],minimal accumulation
same,time of Cmax after oral dosing,[4]; [24],approximately 2 h
same,dose dependence of exposure,[4]; total daily doses of 40–320 mg,increased in a dose-proportional manner
same,pathway of oxidative metabolism,[5],largely mediated through the cytochrome P450 3A (CYP3A) pathway
C=CC(=O)N1CCC[C@@H](n2nc(-c3ccc(Oc4ccccc4)cc3)c3c(N)ncnc32)C1 [ibrutinib],increase in AUC with ketoconazole,[6],24 fold
CC#CC(=O)N1CCC[C@H]1c1nc(-c2ccc(C(=O)Nc3ccccn3)cc2)c2c(N)nccn12 [acalabrutinib],decrease in AUC with rifampin,[6],77%
same,increase in AUC with itraconazole,[6],5.1 fold
